This note sets out measurements from patent US20150125407A1, “Vesicular Formulations, Uses and Methods” (Sequessome Technology Holdings Ltd, priority 2012, published 2015).

This experiment relates to acne vulgaris. Kind of experiment: Use example 1: topical roaccutane alone or layered with Rossoseq gel in teenage acne vulgaris. To be noted: topically applied roaccutane alone; person.

As for `CC1=C(/C=C/C(C)=C/C=C/C(C)=C\C(=O)O)C(C)(C)CCC1` [roaccutane], the “effect on acne vulgaris” value is “did not have a significant effect”.
